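Method: 48-hour compound exposure of cells in 96-well plates, five concentrations, linear interpolation of endpoints. At the GI50, growth is halved.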 Activity calls are given as the source filed them. No stated cut-off is given here; in the data, active = GI50 up to about 1.1 µM and inactive = higher.
Experiments:
Experiment in all cases: inhibition of tumour cell growth, NCI panel, 48 h
786-0 = test system: 786-0
EKVX = test system: EKVX
Hs-578T = test system: Hs-578T
IGROV-1 = test system: IGROV-1
KM12 = test system: KM12
M14 = test system: M14
NCI-H226 = test system: NCI-H226
NCI-H460 = test system: NCI-H460
NCI-H522 = test system: NCI-H522
NCI/ADR-RES = test system: NCI/ADR-RES
PC-3 = test system: PC-3
SF-268 = test system: SF-268
SF-295 = test system: SF-295
SK-MEL-28 = test system: SK-MEL-28
SK-MEL-2 = test system: SK-MEL-2
SN12C = test system: SN12C
SNB-19 = test system: SNB-19
TK-10 = test system: TK-10
UACC-257 = test system: UACC-257
UACC-62 = test system: UACC-62

CN(C)C(=S)NC(=S)Nc1ccc2ccccc2c1
GI50 (786-0): 12.8 µM (inactive)
GI50 (EKVX): 14.1 µM (inactive)
GI50 (Hs-578T): 33.1 µM (inactive)
GI50 (IGROV-1): 14.4 µM (inactive)
GI50 (KM12): 12.4 µM (inactive)
GI50 (M14): 12.7 µM (inactive)
GI50 (NCI-H226): 12.1 µM (inactive)
GI50 (NCI-H460): 3.94 µM (inactive)
GI50 (NCI-H522): 5.7 µM (inactive)
GI50 (NCI/ADR-RES): 13.8 µM (inactive)
GI50 (PC-3): 6.1 µM (inactive)
GI50 (SF-268): 10.3 µM (inactive)
GI50 (SF-295): 4.55 µM (inactive)
GI50 (SK-MEL-28): 14.5 µM (inactive)
GI50 (SK-MEL-2): 13.9 µM (inactive)
GI50 (SN12C): 2.69 µM (inactive)
GI50 (SNB-19): 12.3 µM (inactive)
GI50 (TK-10): 22.7 µM (inactive)
GI50 (UACC-257): 8.95 µM (inactive)
GI50 (UACC-62): 2.14 µM (inactive)

CC(C)=CCNc1ncnc2c1c(C#N)cn2C1OC(CO)C(O)C1O (stereo not given)
GI50 (786-0): > 100 µM (inactive)
GI50 (EKVX): 10.4 µM (inactive)
GI50 (Hs-578T): 56.9 µM (inactive)
GI50 (IGROV-1): 0.431 µM (active)
GI50 (KM12): 1.36 µM (inactive)
GI50 (M14): > 58.3 µM (inactive)
GI50 (NCI-H226): 39.2 µM (inactive)
GI50 (NCI-H460): 4.02 µM (inactive)
GI50 (NCI-H522): 7.64 µM (inactive)
GI50 (NCI/ADR-RES): > 82 µM (inactive)
GI50 (PC-3): 32.5 µM (inactive)
GI50 (SF-268): > 100 µM (inactive)
GI50 (SF-295): > 100 µM (inactive)
GI50 (SK-MEL-28): > 100 µM (inactive)
GI50 (SK-MEL-2): 39.7 µM (inactive)
GI50 (SN12C): 12.7 µM (inactive)
GI50 (SNB-19): > 53.8 µM (inactive)
GI50 (TK-10): 1.21 µM (inactive)
GI50 (UACC-257): > 100 µM (inactive)
GI50 (UACC-62): 39.7 µM (inactive)

C/N=c1\sc2nc(C#N)c(C#N)nc2n1C
GI50 (786-0): 25.8 µM (inactive)
GI50 (EKVX): 18.5 µM (inactive)
GI50 (Hs-578T): 31.1 µM (inactive)
GI50 (IGROV-1): 25.2 µM (inactive)
GI50 (KM12): 27.5 µM (inactive)
GI50 (M14): 23 µM (inactive)
GI50 (NCI-H226): 16.2 µM (inactive)
GI50 (NCI-H460): 19.1 µM (inactive)
GI50 (NCI-H522): 15 µM (inactive)
GI50 (NCI/ADR-RES): 25.5 µM (inactive)
GI50 (PC-3): 40.2 µM (inactive)
GI50 (SF-268): 32.4 µM (inactive)
GI50 (SF-295): 18 µM (inactive)
GI50 (SK-MEL-28): 29.2 µM (inactive)
GI50 (SK-MEL-2): 16.5 µM (inactive)
GI50 (SN12C): 37.9 µM (inactive)
GI50 (SNB-19): 28.4 µM (inactive)
GI50 (TK-10): 25.5 µM (inactive)
GI50 (UACC-257): 24.2 µM (inactive)
GI50 (UACC-62): 18.3 µM (inactive)

COc1cccc2c1C(=O)c1ccc3cc(CCl)cc(O)c3c1C2=O
GI50 (786-0): 0.174 µM (active)
GI50 (EKVX): 1.09 µM (active)
GI50 (Hs-578T): 0.362 µM (active)
GI50 (IGROV-1): 1.03 µM (active)
GI50 (KM12): 0.0605 µM (active)
GI50 (M14): 0.229 µM (active)
GI50 (NCI-H226): 0.869 µM (active)
GI50 (NCI-H460): 0.196 µM (active)
GI50 (NCI-H522): 0.552 µM (active)
GI50 (NCI/ADR-RES): 0.353 µM (active)
GI50 (PC-3): 0.243 µM (active)
GI50 (SF-268): 0.379 µM (active)
GI50 (SF-295): 0.314 µM (active)
GI50 (SK-MEL-28): 0.348 µM (active)
GI50 (SK-MEL-2): 0.33 µM (active)
GI50 (SN12C): 0.163 µM (active)
GI50 (SNB-19): 0.897 µM (active)
GI50 (TK-10): 0.238 µM (active)
GI50 (UACC-257): 0.269 µM (active)
GI50 (UACC-62): 0.202 µM (active)

O=C1CC[C@@]23CC(=O)O[C@@H]2CCCC3C1 (stereo not given in full)
GI50 (786-0): > 100 µM (inactive)
GI50 (EKVX): > 100 µM (inactive)
GI50 (Hs-578T): > 100 µM (inactive)
GI50 (IGROV-1): > 100 µM (inactive)
GI50 (KM12): > 100 µM (inactive)
GI50 (M14): > 100 µM (inactive)
GI50 (NCI-H226): > 100 µM (inactive)
GI50 (NCI-H460): > 100 µM (inactive)
GI50 (NCI-H522): > 100 µM (inactive)
GI50 (NCI/ADR-RES): > 100 µM (inactive)
GI50 (PC-3): > 100 µM (inactive)
GI50 (SF-268): > 100 µM (inactive)
GI50 (SF-295): > 100 µM (inactive)
GI50 (SK-MEL-28): > 100 µM (inactive)
GI50 (SK-MEL-2): > 100 µM (inactive)
GI50 (SN12C): > 100 µM (inactive)
GI50 (SNB-19): > 100 µM (inactive)
GI50 (TK-10): > 100 µM (inactive)
GI50 (UACC-257): > 100 µM (inactive)
GI50 (UACC-62): > 100 µM (inactive)

CCOC(=O)/C=C(/C(=O)OCC)n1ccc(=O)n(Cc2cnnn2COCCOC(C)=O)c1=O
GI50 (786-0): 10 µM (inactive)
GI50 (EKVX): 16.5 µM (inactive)
GI50 (Hs-578T): 21 µM (inactive)
GI50 (IGROV-1): 17.9 µM (inactive)
GI50 (KM12): 28.6 µM (inactive)
GI50 (M14): 17.1 µM (inactive)
GI50 (NCI-H226): 24.3 µM (inactive)
GI50 (NCI-H460): > 43 µM (inactive)
GI50 (NCI-H522): 1.95 µM (inactive)
GI50 (NCI/ADR-RES): 21.9 µM (inactive)
GI50 (PC-3): 17.5 µM (inactive)
GI50 (SF-268): 20 µM (inactive)
GI50 (SF-295): > 100 µM (inactive)
GI50 (SK-MEL-28): 16.3 µM (inactive)
GI50 (SK-MEL-2): 19.9 µM (inactive)
GI50 (SN12C): 22.1 µM (inactive)
GI50 (SNB-19): > 31.6 µM (inactive)
GI50 (TK-10): 7.26 µM (inactive)
GI50 (UACC-257): 16.8 µM (inactive)
GI50 (UACC-62): 17.3 µM (inactive)

COc1ccc(C(=C2C(=O)OC(=O)C2=C(C)C)c2ccc(OC)cc2)cc1
GI50 (786-0): > 100 µM (inactive)
GI50 (EKVX): 27 µM (inactive)
GI50 (Hs-578T): 95.5 µM (inactive)
GI50 (IGROV-1): 54 µM (inactive)
GI50 (KM12): 29.2 µM (inactive)
GI50 (M14): 85.1 µM (inactive)
GI50 (NCI-H226): > 100 µM (inactive)
GI50 (NCI-H460): > 100 µM (inactive)
GI50 (NCI-H522): 23.2 µM (inactive)
GI50 (NCI/ADR-RES): 39.5 µM (inactive)
GI50 (PC-3): 60.4 µM (inactive)
GI50 (SF-268): > 100 µM (inactive)
GI50 (SF-295): 73.5 µM (inactive)
GI50 (SK-MEL-28): > 100 µM (inactive)
GI50 (SK-MEL-2): 53.8 µM (inactive)
GI50 (SN12C): > 100 µM (inactive)
GI50 (SNB-19): 57.4 µM (inactive)
GI50 (TK-10): > 100 µM (inactive)
GI50 (UACC-257): > 100 µM (inactive)
GI50 (UACC-62): > 100 µM (inactive)
